The target in assay [1] is T1, es nucleoside transporter (Mus musculus, UniProt Q9JIM1).
T1 construct: endogenous in cells; host or cells: L1210/B23.1 mouse leukemia cells
T1 sequence (Q9JIM1 1-460): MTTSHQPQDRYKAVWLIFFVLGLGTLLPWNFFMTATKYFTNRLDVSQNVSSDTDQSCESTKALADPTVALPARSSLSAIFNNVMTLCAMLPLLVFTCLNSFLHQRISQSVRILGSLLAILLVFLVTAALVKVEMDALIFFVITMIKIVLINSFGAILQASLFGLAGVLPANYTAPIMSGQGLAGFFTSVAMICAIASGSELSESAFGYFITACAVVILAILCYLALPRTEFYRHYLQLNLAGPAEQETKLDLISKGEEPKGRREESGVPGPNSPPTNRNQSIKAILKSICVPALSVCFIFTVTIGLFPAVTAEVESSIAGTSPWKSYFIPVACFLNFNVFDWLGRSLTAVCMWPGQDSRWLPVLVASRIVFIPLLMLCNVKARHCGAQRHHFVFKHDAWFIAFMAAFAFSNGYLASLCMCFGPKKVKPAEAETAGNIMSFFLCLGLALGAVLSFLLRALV
Put plainly: [3H]NBMPR equilibrium binding to L1210/B23.1 cells and its inhibition by SAENTA-fluorescein probes. To be noted: 22°; for Ki: replots of Kd(app)/Bmax versus [probe], read-out: Ki (mean ± S.D.).

Assay [2] has as its target T2, es nucleoside transporter (Sus scrofa, UniProt A0A287B2T6).
T2 construct: immediately processed by conventional methods for recovery of erythrocytes; tissue Gainers, Edmonton, Alberta, Canada (blood of domestic pigs); host or cells: pig erythrocytes, unsealed ghosts
Put plainly: Inhibition of site-specific [3H]NBMPR binding to unsealed pig erythrocyte ghosts. The conditions noted are these: for IC50: 2 nM [3H]NBMPR, 20 min, 22° C., pH 7.4, read-out: IC50 for inhibition of site-bound [3H]NBMPR; for inhibition of NBMPR binding to the nucleoside transporter: result in words. On the procedure:
Blood from adult domestic pigs (Gainers, Edmonton, Alberta, Canada) was collected into 0.2 vol. of anticoagulant solution (90 mM-sodium citrate/16 mM-citric acid/16 mM-monosodium phosphate/2 mM-adenine/12 mM-inosine) and immediately processed by conventional methods for recovery of erythrocytes.
Unsealed ghosts were prepared at 4° C. by the procedure of Steck & Kant, (1974), Methods in Enzymology, vol. 31, pp. 172-180, modified by the inclusion of 0.1 mM phenylmethane sulphonyl fluoride, and stored at -70° C.
NBMPR was prepared as described by Paul, Chen & Paterson (1975), J. Med Chem., vol. 18, pp. 968-973. [G-^3 H]NBMPR (23 Ci/mmol), obtained from Moravek Biochemicals, Brea, CA., U.S.A., was purified by using a Spheri-10 RP18 100 mm×4.6 mm column (Brownlee Labs, Santa Clara, CA,. U.S.A.), eluted with a methanol/water gradient.
Binding to unsealed ghosts was determined by a filtration assay, as described by Agbanyo, Cass & Paterson (1988) Mol. Pharmacol., vol. 33, pp. 332-337. Assay mixtures (final volume, 1.2 ml; two samples per condition) contained 2 nM-[^3 H]NBMPR, graded concentrations of test compound and unsealed ghosts (10 μg of protein/ml) in 5 mM-sodium phosphate buffer, pH 7.4, at 22° C., and, for determination of non-specific binding, 5 μM non-radioactive NBMPR was present. After a 20 min incubation at 22° C., membrane material from 1 ml portions of assay mixtures was collected by vacuum filtration on Whatman GF/C microfibre filters, which were then rapidly washed three times with 2 ml portions of ice-cold 5 mM-sodium phosphate buffer. The filters were placed in scintillation vials and assayed for radioactivity after a 16 h incubation in 8 ml of Triton X-100-based scintillation fluid as described by Pande (1976) Anal. Biochem., vol. 74, pp. 25-34. Protein was determined by the bicinchoninic acid method of Smith et al. (1985) Anal. Biochem., vol. 150, pp. 76-85.
Correction for non-specific binding was determined by performing the assay in the presence of 5 μM-non radioactive NBMPR. Replicate mixtures contained ghosts, 2 nM-[^3 H]NBMPR, graded concentrations of SAENTA or acetyl SAENTA (prepared as in Example 1) and, in mixtures used for non-specific binding, 5 μM-non radioactive NBMPR. Values for [^3 H]NBMPR specifically bound in the presence of inhibitor are expressed as percentages of that bound in its absence.
IC50 values were determined from plots of % site-bound NBMPR in presence of test compound against concentration of test compound.

The target of assay [3] is T3, nucleoside transporter (Homo sapiens, UniProt Q99808).
T3 construct: The human leukaemic cell line RC2a, of myelomonocytic origin; endogenous in cells; host or cells: RC2a human leukaemic (myelomonocytic) cells
T3 sequence (Q99808 1-456): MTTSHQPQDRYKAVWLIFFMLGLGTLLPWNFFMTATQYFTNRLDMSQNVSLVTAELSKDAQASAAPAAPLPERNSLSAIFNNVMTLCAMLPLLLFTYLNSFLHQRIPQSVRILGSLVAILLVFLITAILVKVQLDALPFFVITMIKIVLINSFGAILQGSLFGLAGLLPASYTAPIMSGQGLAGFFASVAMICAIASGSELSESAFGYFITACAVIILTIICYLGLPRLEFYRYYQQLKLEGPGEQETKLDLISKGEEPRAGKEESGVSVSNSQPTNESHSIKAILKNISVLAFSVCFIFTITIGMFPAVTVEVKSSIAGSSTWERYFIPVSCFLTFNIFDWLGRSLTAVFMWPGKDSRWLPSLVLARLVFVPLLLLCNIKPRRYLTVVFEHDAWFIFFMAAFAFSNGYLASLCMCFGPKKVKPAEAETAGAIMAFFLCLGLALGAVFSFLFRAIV
As to the kind of experiment: Inhibition of [3H]NBMPR binding to RC2a leukaemic cells. The conditions noted are these: 30 min, 37° C., FIG. 5; read-out: half-maximal inhibition of site-specific [3H]NBMPR binding.
Method: [^3 H]NBMPR from Moravek Biochemicals Brea, CA, U.S.A. was purified by reverse phase HPLC using methanol-water as solvent. Unlabelled NBMPR was supplied by Sigma (St. Louis, MO, U.S.A.). [^3 H]Cytosine arabinoside (araC) and [^14 C]polyethylene glycol were obtained from Amersham, Buckinghamshire, England. Dilazep was a gift from Roche, Dee Why, Australia.
The free [^3 H]NBMPR concentration in the medium above the oil was also measured. Non-specific binding of [^3 H]NBMPR was measured in parallel incubations of cells treated for 5 min at 37° C. with 5 μM NBMPR before the addition of [^3 H]NBMPR. Specific binding was calculated by subtracting the amount of non-specific binding (determined in the presence of 5 μM unlabelled NBMPR) from total [^3 ]NBMPR binding in all analyses.

Assay [4] concerns the target T1, es nucleoside transporter. As to the kind of experiment: Flow cytometric staining of L1210/B23.1 cells (es nucleoside transporter-expressing) by SAENTA-fluorescein probe. To be noted: 40 nM 5-(SAENTA-X2)-fluorescein, 10 min, 4° C., pH 8.0, FIG. 8. The assay is classed as cell-based. As for the experimental part:
Flow cytometric measurements of binding of .[.SAENTA-x2 -fluorescein.]. .Iadd.SAENTA-X2-fluorescein .Iaddend.prepared as in Example 3 was carried out as in Example 4 using two clonal lines of cultured mouse leukemia L 1210 cells, L 1210/B23.1 and L 1210/MA-27.1. L 1210/B23.1 expresses NBMPR binding sites and nuclesoside transporter activity whereas L 1210/MA-27.1 cells lack both of these features.
Staining conditions were chosen to minimise non-specific fluorescence signals from L 1210/MA-27.1 cells treated with the nucleoside.
Cells were exposed for 10 min at 4° C. to phosphate-buffered (pH 8.0) salts medium containing 40 nM .[.5(SAENTA-xx2)fluorescein.]. .Iadd.5-(SAENTA-X2)-fluorescein .Iaddend.prior to flow cytometric analysis in a BD FACSan instrument; 10^5 cells were analysed. Cells in replicate assay mixtures were also exposed for 5 min at 22° C. to medium containing 10 μM NBMPR and then for 10 min at 4° C. to medium containing both NBMPR and .[.5-SAENTA-x2)-fluorescein.]. .Iadd.5-(SAENTA-X2)-fluorescein.Iaddend..
(a) Clonal lines of mouse leukemia cells were exposed for 10 min at 4° C. to phosphate buffered (pH 8.0) saline containing […] .[.5-(SAENTA-x2)-fluorescein.]. .Iadd.5-(SAENTA-X2)-fluorescein .Iaddend.(prepared as in Example 3) prior to flow cytometric analysis in a BD FACScan instrument; 10^4 cells were analysed. Cells in replicate mixtures were also exposed for 5 min at 22° C. to medium containing 10 μM NBMPR and then for 10 min at 4° C. to medium containing both NBMPR and .[.5-(SAENTA-x2)-fluorescein.]. .Iadd.5-(SAENTA-X2)-fluorescein.Iaddend.. L 1210/B23.1 cells express the es nucleoside transport system whereas L 1210/MA-27.1 cells lack that activity.
Background: In flow cytometry, cells or beads pass a laser one at a time.

Assay [5] deals with T3, nucleoside transporter. As to the kind of experiment: Inhibition of [3H]cytosine arabinoside (araC) influx in RC2a leukaemic cells. The assay is classed as cell-based. As for the experimental part:
. Unlabelled NBMPR was supplied by Sigma (St. Louis, MO, U.S.A.). [^3 H]Cytosine arabinoside (araC) and [^14 C]polyethylene glycol were obtained from Amersham, Buckinghamshire, England. Dilazep was a gift from Roche, Dee Why, Australia. Incubations were carried out using imidazole-buffered saline (IBS; […], 5 mM KCl, 5 mM imidazole-Cl, 1 mM MgCl2 and 5 mM glucose, pH 7.4).
The human leukaemic cell line RC2a, of myelomonocytic origin (Bradley et al., 1982 Brit. J. Haematol., vol. 51, pp. 595-604) was maintained in RPMI 1640 medium containing 10% foetal calf serum, 2 mM glutamine, 20 mM HEPES (pH 7.4) (Flow Laboratories, Sydney, Australia) and 20 mg/l gentamycin sulphate (Roussell, Castle Hill, Australia). Cell densities were maintained below 5×10^5 /ml. Cells were collected by centrifugation and resuspended in buffered saline for assays.
Prior to measurement of [^3 H]araC uptake, RC2a leukaemic cells were treated at 20° C. for 10 min with graded concentrations (0-0.05 μM) of .[.SAENTA-x2 -fluorescein.]. .Iadd.SAENTA-X2-fluorescein .Iaddend.prepared as in Example 3. Treated cells (100 μl, 5×10^7 cells/ml) were added to [^3 H]araC (100 μl) in IBS medium in 1.5 ml centrifuge tubes to give a final araC concentration of 50 μM. [^3 H]araC uptake was ended 20 sec. later by the addition of 800 μl of ice-cold dilazep (750 μM) (Jamieson et al., 1989). Phthalate oil was added immediately and the tube spun at 8000 g for 2 min. Medium above the oil was aspirated, the tube walls washed, and the oil above the cell pellet removed. Pellets were solubilized using 0.5M NaOH and the [^3 H]araC contents were measured by liquid scintillation counting. […]
The ability of .[.SAENTA-x2 -fluorescein.]. .Iadd.SAENTA-X2-fluorescein .Iaddend.to inhibit influx of nucleoside was assessed in cultured RC2a leukaemic cells by treating the cells for 10 min with graded concentrations of .[.SAENTA-x2 -fluorescein.]. .Iadd.SAENTA-X2-fluorescein .Iaddend.(0 to 0.25 μM). Uptake rates of araC (50 μM) were then determined over 20 s at 20° C. as described above.

Assay [6] addresses T3, nucleoside transporter. As to the kind of experiment: Equilibrium binding of SAENTA-fluorescein probe to RC2a cells by flow cytometry, with displacement by NBMPR or dilazep.

Results on eight molecules are retold here after USRE35904E, “Method and probes for detecting nucleoside transporter and method for producing the probes” (Governors of the University of Alberta, priority 1995, dated 1998).

T2 sequence (A0A287B2T6 1-457): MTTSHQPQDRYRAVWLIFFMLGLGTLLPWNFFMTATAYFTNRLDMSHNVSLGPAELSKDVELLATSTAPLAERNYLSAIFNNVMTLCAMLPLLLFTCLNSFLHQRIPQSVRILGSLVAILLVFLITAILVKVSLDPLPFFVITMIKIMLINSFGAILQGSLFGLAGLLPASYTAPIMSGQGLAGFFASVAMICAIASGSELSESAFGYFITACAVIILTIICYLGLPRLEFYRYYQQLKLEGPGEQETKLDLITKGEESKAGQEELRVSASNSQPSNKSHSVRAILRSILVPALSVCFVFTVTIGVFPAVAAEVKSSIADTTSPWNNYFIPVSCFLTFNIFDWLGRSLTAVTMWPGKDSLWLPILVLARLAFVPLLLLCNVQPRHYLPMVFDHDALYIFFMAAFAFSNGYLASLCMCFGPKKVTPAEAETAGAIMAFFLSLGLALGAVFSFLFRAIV

For `O=C(CCCCCNC(=O)c1ccc2c(c1)C(=O)OC21c2ccc(O)cc2Oc2cc(O)ccc21)NCCSC[C@H]1O[C@@H](n2cnc3c(NCc4ccc([N+](=O)[O-])cc4)ncnc32)[C@H](O)[C@@H]1O` [5-(SAENTA-X8)-fluorescein, 5'-S-[2-(6-(Fluorescein-5-carboxamido)hexanoylamino)ethyl]-N^6-(4-nitrobenzyl)-5'-thioadenosine], in assay [1], the Ki is 0.8 ± 0.21 nM.

`O=C1OC2(c3ccc(O)cc3Oc3cc(O)ccc32)c2cc(NC(=S)NCCSC[C@H]3O[C@@H](n4cnc5c(NCc6ccc([N+](=O)[O-])cc6)ncnc54)[C@H](O)[C@@H]3O)ccc21` [6-(SAENTA-X2)-fluorescein]: the Ki in assay [1] was found to be 9.9 ± 2.8 nM.

On to `O=C(CCCCCNC(=O)c1ccc2c(c1)C1(OC2=O)c2ccc(O)cc2Oc2cc(O)ccc21)NCCSC[C@H]1O[C@@H](n2cnc3c(NCc4ccc([N+](=O)[O-])cc4)ncnc32)[C@H](O)[C@@H]1O` [6-(SAENTA-X8)-fluorescein, 5'-S-[2-(6-(Fluorescein-6-carboxamido)hexanoylamino)ethyl]-N^6-(4-nitrobenzyl)-5'-thioadenosine], for which the Ki in assay [1] is 1.7 ± 0.5 nM.

Broadly, the Kd is the equilibrium constant for the complex coming apart. `O=[N+]([O-])c1ccc(CSc2ncnc3c2ncn3C2OC(CO)C(O)C2O)cc1` (centres unmarked) [NBMPR, nitrobenzyl thioinosine, reference compound] came in with a Kd in assay [1] (Scatchard analysis (LIGAND)) of 0.085 ± 0.015 nM.

Regarding `NCCSC[C@H]1O[C@@H](n2cnc3c(NCc4ccc([N+](=O)[O-])cc4)ncnc32)[C@H](O)[C@@H]1O` [SAENTA, 5'-S-(2-aminoethyl)-6-N-(4-nitrobenzyl)-5'-thioadenosine], in assay [2], the IC50 amounted to 330 nM and the “inhibition of NBMPR binding to the nucleoside transporter” value is reported as “strong inhibition”.

Turning to `O=C(O)c1cc(NC(=S)NCCSC[C@H]2O[C@@H](n3cnc4c(NCc5ccc([N+](=O)[O-])cc5)ncnc43)[C@H](O)[C@@H]2O)ccc1-c1c2ccc(=O)cc-2oc2cc(O)ccc12` [SAENTA-X2-fluorescein], the IC50 at nucleoside transporter [3] was 50 to 100 nM; on nucleoside transporter [5] (50 μM araC, 20° C., 10 min pretreatment), roughly 40 nM. Moreover, the “distinction of L1210/B23.1 from L1210/MA-27.1 cells by cell staining” value in assay [4] is “able to distinguish clearly”. In addition, the “inhibition of influx of [3H]araC” value against nucleoside transporter [5] (50 μM araC, 20° C., 10 min exposure to 0.25 μM probe) stood at 90%. Moreover, the EC50 on nucleoside transporter [6] (RC2a cells 1×10^5/ml, room temperature, n=3, ±1 SD, FIG. 7, read-out: concentration giving half-maximal binding (NBMPR-sensitive)) stood at 6.2 ± 1 nM. The “time to equilibrium of cell bound fluorescence” value at nucleoside transporter [6] (all ligand concentrations, room temperature) was 10 min. The “time to equilibrium between bound and free probe” value on nucleoside transporter [6] (lowest ligand concentration, room temperature) is reported as 10 min.

In the case of `CC(=O)NCCSC[C@H]1O[C@@H](n2cnc3c(NCc4ccc([N+](=O)[O-])cc4)ncnc32)[C@H](O)[C@@H]1O` [acetyl SAENTA], in assay [2], the IC50 worked out at 76 nM and the “inhibition of NBMPR binding to the nucleoside transporter” value is on record as “strong inhibition”.

`COc1cc(C(=O)OCCCN2CCCN(CCCOC(=O)c3cc(OC)c(OC)c(OC)c3)CC2)cc(OC)c1OC` [dilazep, reference compound]: at nucleoside transporter [5] (dilazep added to cells prior to [3H]araC), the “effectiveness in stopping araC influx” value is “effectiveness of dilazep in stopping influx was confirmed”. Moreover, the “displacement of SAENTA-X2-fluorescein binding” value on nucleoside transporter [6] (2 μM dilazep versus 1 μM NBMPR) is “as effective as NBMPR”.
